Laboratory results taken from article PMC3914206.

Columns and labels:
Format in all cases: binding
Design in all cases: KINOMEscan: ABL1(F317L)-phosphorylated / KINOMEscan: ABL1(H396P)-nonphosphorylated / KINOMEscan: ABL1(H396P)-phosphorylated / KINOMEscan: ABL1(M351T)-phosphorylated / KINOMEscan: ABL1(T315I)-phosphorylated / KINOMEscan: ABL1-nonphosphorylated / KINOMEscan: ABL1-phosphorylated / KINOMEscan: ACVR2A / KINOMEscan: ACVR2B / KINOMEscan: ADCK3 / KINOMEscan: ADCK4 / KINOMEscan: AKT1 / KINOMEscan: AKT3 / KINOMEscan: ALK / KINOMEscan: ARK5 / KINOMEscan: AURKA / KINOMEscan: AURKC / KINOMEscan: BIKE / KINOMEscan: BMPR1A / KINOMEscan: BMPR1B / KINOMEscan: BMX / KINOMEscan: BRK / KINOMEscan: BRSK1 / KINOMEscan: BRSK2 / KINOMEscan: CAMK1 / KINOMEscan: CAMK1D / KINOMEscan: CAMK1G / KINOMEscan: CAMK2A / KINOMEscan: CAMK2B / KINOMEscan: AAK1 / KINOMEscan: CAMK2D / KINOMEscan: CAMK2G / KINOMEscan: ABL1(F317I)-nonphosphorylated / KINOMEscan: ABL1(F317I)-phosphorylated / KINOMEscan: ABL1(F317L)-nonphosphorylated: unit: % Ctrl
[1] = target: T1, panel of 442 kinases (Homo sapiens, UniProt P00519, F317I); conditions: Compound Concentration 10 µM
T1 construct: purchased KINOMEscan
T1 sequence (P00519 whole entry F317I): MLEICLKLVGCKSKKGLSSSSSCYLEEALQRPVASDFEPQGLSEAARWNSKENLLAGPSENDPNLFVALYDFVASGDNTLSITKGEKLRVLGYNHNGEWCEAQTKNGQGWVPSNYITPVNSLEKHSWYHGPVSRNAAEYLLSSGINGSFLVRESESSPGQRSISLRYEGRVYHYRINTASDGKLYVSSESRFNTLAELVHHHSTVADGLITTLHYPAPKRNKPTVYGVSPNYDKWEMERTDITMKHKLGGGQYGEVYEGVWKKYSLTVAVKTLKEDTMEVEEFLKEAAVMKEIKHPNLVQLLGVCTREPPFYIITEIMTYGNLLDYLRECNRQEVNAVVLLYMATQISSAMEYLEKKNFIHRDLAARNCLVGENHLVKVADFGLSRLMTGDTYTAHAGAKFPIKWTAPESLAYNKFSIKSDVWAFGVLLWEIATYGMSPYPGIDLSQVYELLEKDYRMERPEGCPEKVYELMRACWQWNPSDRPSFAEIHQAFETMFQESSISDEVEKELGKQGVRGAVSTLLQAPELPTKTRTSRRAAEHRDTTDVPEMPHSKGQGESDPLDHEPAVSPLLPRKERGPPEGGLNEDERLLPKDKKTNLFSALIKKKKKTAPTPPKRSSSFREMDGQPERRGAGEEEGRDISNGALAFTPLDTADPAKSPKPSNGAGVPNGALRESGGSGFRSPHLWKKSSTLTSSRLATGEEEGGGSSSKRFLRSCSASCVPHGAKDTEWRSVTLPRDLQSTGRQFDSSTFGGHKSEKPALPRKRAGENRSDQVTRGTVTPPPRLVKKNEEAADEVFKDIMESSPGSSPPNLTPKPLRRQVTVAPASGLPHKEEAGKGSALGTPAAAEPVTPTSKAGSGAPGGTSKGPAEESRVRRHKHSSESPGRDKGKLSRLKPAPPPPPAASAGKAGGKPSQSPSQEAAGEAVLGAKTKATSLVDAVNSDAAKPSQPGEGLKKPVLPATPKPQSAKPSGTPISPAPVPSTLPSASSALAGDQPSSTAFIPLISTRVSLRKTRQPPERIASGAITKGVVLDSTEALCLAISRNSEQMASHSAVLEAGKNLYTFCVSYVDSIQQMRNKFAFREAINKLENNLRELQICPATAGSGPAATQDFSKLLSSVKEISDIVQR
Source text: (§1) We assessed the selectivity of members of this scaffold using the KINOMEscan methodology across a near comprehensive panel of 442 kinases [[18,27]].

[2] = target: T2, panel of 442 kinases (Plasmodium falciparum, UniProt P62344); conditions: Compound Concentration 10 µM
T2 construct: purchased KINOMEscan
T2 sequence (P62344 whole entry): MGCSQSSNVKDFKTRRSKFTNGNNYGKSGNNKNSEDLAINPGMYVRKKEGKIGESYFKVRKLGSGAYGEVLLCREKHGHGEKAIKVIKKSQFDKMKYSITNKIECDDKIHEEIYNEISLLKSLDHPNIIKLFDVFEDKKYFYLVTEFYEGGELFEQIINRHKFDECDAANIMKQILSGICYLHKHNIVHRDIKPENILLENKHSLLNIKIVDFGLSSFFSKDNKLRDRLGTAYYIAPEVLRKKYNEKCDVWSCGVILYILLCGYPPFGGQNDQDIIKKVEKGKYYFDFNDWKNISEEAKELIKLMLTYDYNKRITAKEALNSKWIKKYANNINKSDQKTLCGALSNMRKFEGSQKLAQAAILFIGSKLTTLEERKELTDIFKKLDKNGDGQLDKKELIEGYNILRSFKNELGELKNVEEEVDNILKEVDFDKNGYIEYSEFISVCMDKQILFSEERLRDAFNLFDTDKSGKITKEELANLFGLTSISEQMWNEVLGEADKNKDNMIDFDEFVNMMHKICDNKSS
Source text: as §1

[3] = target: T3, panel of 442 kinases (Homo sapiens, UniProt P0C264); conditions: kinase SgK110; compound concentration 10 µM
T3 construct: purchased KINOMEscan
T3 sequence (P0C264 1-359): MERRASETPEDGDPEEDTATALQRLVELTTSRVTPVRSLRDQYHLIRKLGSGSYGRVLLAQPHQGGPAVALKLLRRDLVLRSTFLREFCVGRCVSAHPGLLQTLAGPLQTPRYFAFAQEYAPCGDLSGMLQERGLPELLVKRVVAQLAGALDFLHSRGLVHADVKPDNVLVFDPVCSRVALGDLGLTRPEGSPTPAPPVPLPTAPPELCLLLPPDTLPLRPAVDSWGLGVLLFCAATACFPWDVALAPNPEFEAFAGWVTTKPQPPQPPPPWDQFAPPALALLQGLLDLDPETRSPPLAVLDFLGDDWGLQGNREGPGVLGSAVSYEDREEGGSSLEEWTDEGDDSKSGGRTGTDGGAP
Source text: as §1

Row | Compound | KINOMEscan: ABL1(F317I)-nonphosphorylated [1] | KINOMEscan: ABL1(F317I)-phosphorylated [1] | KINOMEscan: PFCDPK1(P.falciparum) [2] | % Ctrl, SgK110 [3]
1 | COc1cc(C(=O)N2CCC(N3CCN(C)CC3)CC2)ccc1Nc1ncc2c(n1)N1CCc3cccc(c31)C(=O)N2C [Compound 24] | 17 | 24 | – | –
2 | CCOc1cc(C(=O)N2CCC(N3CCN(C)CC3)CC2)ccc1Nc1ncc2c(n1)N(C1CCCC1)c1ccccc1C(=O)N2C [Compound 26] | 51 | 64 | 100 | 81 % Ctrl
3 | COc1cc(C(=O)N2CCC(N3CCN(C)CC3)CC2)ccc1Nc1ncc2c(n1)N(C1CCCC1)c1ccccc1C(=O)N2C [Compound 25, 11-cyclopentyl-2-((2-methoxy-4-(4-(4-methylpiperazin-1-yl)piperidine-1-carbonyl)phenyl)amino)-5-methyl-5H-benzo[e]pyrimido[5,4-b][1,4]diazepin-6(11H)-one] | 26 | 29 | 91 | 43 % Ctrl
4 | COc1cc(C(=O)N2CCC(N3CCN(C)CC3)CC2)ccc1Nc1ncc2c(n1)N(C)c1ccccc1C(=O)N2C [15 (LRRK2-IN-1)] | 15 | 17 | 100 | 62 % Ctrl
